The source of these data is patent US8974815B2, “Fibrous membrane for biomedical application based on poly(ester-amide)s” (Cornell University, priority 2005, dated 2015).

The target of one data set is α-chymotrypsin (Bos taurus, UniProt P00766). Briefly: In vitro release of 4-amino-TEMPO in α-chymotrypsin solution (ESR). The format is in vitro ADME. The procedure:
(§1) The in vitro release of 4-amino-TEMPO nitroxyl radicals from electrospun PEA fibers was investigated by immersing ˜300 mg 8-Phe-4 electrospun nano fibrous mat into a glass vial filled with 5 mL of 0.1M phosphate buffer solution of pH=7.42. The 8-Phe-4 nano fibrous mat was pre-loaded with 4-amino-TEMPO at a 10.0 mg 4-amino-TEMPO per g 8-Phe-4 and electrospun from a 39% wt/vol 8-Phe-4 solution in the mixture solvent of chloroform and DMF at volume ratio of 2 to 1. The glass vial was then placed in a water bath shaker maintained at 37° C. and 100 cycles/min. 10 μl of supernant of the vial was taken at a determined time and the amount of 4-amino-TEMPO nitroxyl radicals was measured by electron spin resonance (ESR) as a function of incubation time.
(§2) Three samples were taken for each measurement and the average results were reported. The ESR spectra at X-band were obtained from a Bruker 200D SRC spectrometer operating at 9.6 GHz, using 100 KHz modulation. The ESR signal intensity which is proportional to the mass of 4-amino-TEMPO nitroxyl free radical was obtained by a double integration of the recorded first derivative signals. A linear correlation (γ^2=0.9996) between the ESR signal intensity and the mass of nitroxyl radical ranging from 1.67 μg to 0.05 μg was obtained. The actual amount of 4-amino-TEMPO nitroxyl radicals loaded into the electrospun fibers was also determined by a complete dissolution of 8-Phe-4/4-amino-TEMPO electrospun fibrous membranes in DMF and the actual pre-loaded 4-amino-TEMPO amount within 8-Phe-4 fibers was calculated from the established calibration curve. The nitroxyl radicals released was measured in triplicates and expressed in the percentage of the initial pre-loaded amounts in the 8-Phe-4 fibers.
4-amino-TEMPO was physically pre-loaded into the 640 nm 8-Phe-4 electrospun fibers at a loading level of 10.0 mg TEMPO per gram of 8-Phe-4. Since 4-amino-TEMPO is a free radical, the actual amounts of 4-amino-TEMPO loaded into the 8-Phe-4 electrospun nanofibers and its subsequently release from the fibers in either PBS buffer or a α-chymotrypsin solution (0.1 mg/mL α-chymotrypsin) were quantified by ESR.

Data set [1] in a line: In vitro release of 4-amino-TEMPO in PBS medium (ESR). Type of data set: physicochemical. How it is done:
as §1, §2

Data set [2] can be described thus: Gallium nitrate release from 8P4 fabric (conductivity). The format is physicochemical. The conditions noted are these: from 8P4 fabric at 1.2, 1.0 and 0.2 g gallium nitrate per g 8P4; water extraction. The procedure:
In order to determine release profiles of gallium nitrate from the fabric, a calibration curve was prepared as follows: Solutions of known concentrations of gallium nitrate in chloroform (not completely dissolved) were extracted with 10-mL deionized water. The electrical resistance of the aqueous solutions from extraction was measured. A calibration curve was constructed based on conductivity (inverse of measured resistance) and known concentration of gallium nitrate.
Drug release was established at 1, 2, 3, 4, 5, 8, 12, 18 and 28 days by extraction with water and measuring conductivity and generating gallium nitrate release profiles for 1.2 grams of gallium nitrate per gram (8P4), 1.0 gram of gallium nitrate per gram (8P4) and 0.2 am of gallium nitrate per gram (8P4). In each case there was a burst of drug release within the first 5 days.

Regarding `CC1(C)CC(N)CC(C)(C)N1[O]` [4-amino-TEMPO, 4-amino-2,2,6,6-tetramethylpiperadine-1-oxy radical], the “release slope in α-chymotrypsin relative to PBS alone” value at α-chymotrypsin was “more than 35 times”. For the same compound, the “slope of the initial linear part of the release profile” value at α-chymotrypsin (0.1 mg/mL α-chymotrypsin solution, 37° C.) is 72 %/day; in data set [1] (PBS medium alone, 37° C.) it was 2.0 %/day. In addition, at α-chymotrypsin (within the 1st hr, α-chymotrypsin solution), the “incorporated TEMPO released” value is recorded as “more than 23%”. Moreover, the “time to complete release” value at α-chymotrypsin (α-chymotrypsin solution) was at most 120 h. In data set [1] (after one month in PBS), the “4-amino-TEMPO still entrapped inside the 8-Phe-4 matrix” value is on record as “more than 60%”. Further, the “initial burst release, of total loaded nitroxyl radical” value in data set [1] (first day, from 640 nm 8-Phe-4 nanofibers, pH 7.42 PBS, 37° C.) was “about 14%”. Further, the “residual nitroxyl radical in dissolved incubated membrane, of initial loading level” value in data set [1] (one-month incubated membrane dissolved in DMF, ESR) is recorded as “about 58%”.

With `O=[N+]([O-])[O-].O=[N+]([O-])[O-].O=[N+]([O-])[O-].[Ga+3]` [gallium nitrate, Gallium (III) nitrate hydrate], the “period of burst of drug release” value in data set [2] is at most 5 days.
